Where “and” joins values, the source holds several entries; their conditions need not be identical. Identical values can stand only once.
What was measured:
[1] = target: T1, luciferase (derived from Photinus pyralis of North America product firefly) (Photinus pyralis, UniProt P08659); assay: Measurement of the bioluminescence spectra (luminescent spectrum of substrate with luciferase, ATP-Mg); format: biochemical; details: for color of the luminescence: FIG. 1; for luminescent wavelength (maximum wavelength of the bioluminescence spectrum): potassium phosphate buffer pH 8.0, substrate solution 2.5 mM, exposure 60 seconds
T1 construct: purchased Sigma-Aldrich Corporation or Promega KK
Experimental: Measurement of Luminescent Spectrum
They were measured using feeble luminescence fluorescent spectra device AB-1850 manufactured by ATTO Co., Ltd. All the measured spectra were the spectra which calibrated with the characteristic of the detector.
For the luciferase (derived from Photinus pyralis of North America product firefly), was used the recombination type manufactured by Sigma-Aldrich Corporation or Promega KK.
For ATP-Mg the product manufactured by Sigma-Aldrich Corporation was used.
The Substrate was weighted with an electronic balance, and it was diluted. The phosphate-buffered saline (50 mM, pH 6.0) was used in the case of the chemiluminescence measurement, and t-butanol was used in the case of the bioluminescence as a solvent.
The luciferase was diluted with Tris-HCl buffer solution (50 mM, pH 8.0 s) to become 1 μg/μl and divided. This was used as stocked solution, so that was diluted to be used each time. Note that, the stock solutions were stored in a freezer of −80 degrees Celsius.
ATP-Mg was diluted in the ultra pure water.
The solution of a potassium phosphate buffer (0.5 M, pH 8.0, 20 μl), the solution of substrate (2.5 mM, 20 μl) and enzyme solution (20 μl), then ATP-Mg solution (ten mM, 40 μl) were mixed in a 200 μL of a polystyrene tube, and measured the luminescent spectrum. The enzyme solution was used at the concentration of 17 μM, provided that enzymes at 1.7 μM and at 170 μM were used in the firefly luciferin (1) and the phenol type luciferin respectively. The exposure time for the measurement of the luminescent spectrum was 60 seconds, provided that the firefly luciferin was five seconds.

[2] = luciferin derivative, patent document 1; cited from earlier work
[3] = Photinus pyralis luciferase, ATP-Mg

T1 sequence (P08659 whole entry): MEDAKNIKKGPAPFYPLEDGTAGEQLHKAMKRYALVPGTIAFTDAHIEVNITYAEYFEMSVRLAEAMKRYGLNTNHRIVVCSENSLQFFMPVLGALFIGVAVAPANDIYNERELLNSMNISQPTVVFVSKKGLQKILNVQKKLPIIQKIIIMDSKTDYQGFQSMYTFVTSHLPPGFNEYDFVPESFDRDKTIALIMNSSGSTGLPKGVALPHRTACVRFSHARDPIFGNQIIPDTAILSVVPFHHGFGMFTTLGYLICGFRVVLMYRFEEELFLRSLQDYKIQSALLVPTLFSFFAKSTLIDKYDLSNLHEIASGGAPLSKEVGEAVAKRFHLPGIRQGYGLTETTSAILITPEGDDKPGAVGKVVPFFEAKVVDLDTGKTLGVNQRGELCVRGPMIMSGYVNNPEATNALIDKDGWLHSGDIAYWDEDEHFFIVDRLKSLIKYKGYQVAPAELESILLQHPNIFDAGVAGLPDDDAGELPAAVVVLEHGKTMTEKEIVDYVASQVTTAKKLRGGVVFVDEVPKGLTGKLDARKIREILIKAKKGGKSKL

CN(C)c1ccc(C2=N[C@@H](C(=O)O)CS2)cc1 [analogs IV, dimethyl aniline type luciferin]
color of the luminescence [1]: red
luminescent wavelength (maximum wavelength of the bioluminescence spectrum) ([1]; Photinus pyralis luciferase, ATP-Mg, listed as IV): 680 nm and 445 nm
luminescent wavelength (maximum wavelength of the bioluminescence spectrum) ([1]; Photinus pyralis luciferase, ATP-Mg, listed as dimethyl aniline type luciferin): about 445 nm

O=C(O)[C@H]1CSC(/C=C/c2ccc(O)cc2)=N1 [analogs 8]
melting point: 138 to 140 °C (dec.)
luminescent wavelength (maximum wavelength of the bioluminescence spectrum) [1, 3]: 520 nm

O=C(O)[C@H]1CSC(/C=C/c2cccc(O)c2)=N1 [analogs 9]
melting point: 163 to 165 °C (dec.)
luminescent activity as substrate ([1]; Photinus pyralis luciferase, ATP-Mg, pH 8.0): did not luminescent

Nc1ccc2nc(C3=N[C@@H](C(=O)O)CS3)sc2c1 [Aminoluciferin]
luminescence wavelength [2]: About 610 nm

CN(C)c1ccc(/C=C/C2=N[C@@H](C(=O)O)CS2)cc1 [analogs III, dimethyl aniline-monoene type luciferin]
color of the luminescence [1]: yellow green
luminescent wavelength (maximum wavelength of the bioluminescence spectrum) [1, 3]: 565 nm

O=C(O)[C@H]1CSC(c2ccc(O)cc2)=N1 [analogs 7]
melting point: 200 to 204 °C (dec.)
luminescent wavelength (maximum wavelength of the bioluminescence spectrum) [1, 3]: 415 nm

CN(C)c1ccc(/C=C/C=C/C2=N[C@@H](C(=O)O)CS2)cc1 [analogs II, dimethyl aniline-diene type luciferin]
color of the luminescence [1]: blue
luminescent wavelength (maximum wavelength of the bioluminescence spectrum) [1, 3]: 445 nm and > 680 nm

From patent US8709821B2, “Luminescent substrate for liciferase” (The University of Electro-Communications, priority 2008, dated 2014)
